Measurements reported in ChEMBL document CHEMBL1147633, “Structure-activity relationships of a novel class of endothelin receptor selective antagonists; 6-carboxy-2-isopropylamino-5,7-diarylcyclopenteno[1,2-b]pyridines” (Bioorg Med Chem Lett, 2004).

Tests used:
[1] = Bioavailability in rat (dose 3 mg/kg p.o.); format: ADME, organism-based; details: in vivo, po
[2] = target: T1, Endothelin receptor type B (Homo sapiens, UniProt P24530); experiment: Inhibitory activity against [125I]ET1 binding to human endothelin B receptor
T1 sequence (P24530 whole entry): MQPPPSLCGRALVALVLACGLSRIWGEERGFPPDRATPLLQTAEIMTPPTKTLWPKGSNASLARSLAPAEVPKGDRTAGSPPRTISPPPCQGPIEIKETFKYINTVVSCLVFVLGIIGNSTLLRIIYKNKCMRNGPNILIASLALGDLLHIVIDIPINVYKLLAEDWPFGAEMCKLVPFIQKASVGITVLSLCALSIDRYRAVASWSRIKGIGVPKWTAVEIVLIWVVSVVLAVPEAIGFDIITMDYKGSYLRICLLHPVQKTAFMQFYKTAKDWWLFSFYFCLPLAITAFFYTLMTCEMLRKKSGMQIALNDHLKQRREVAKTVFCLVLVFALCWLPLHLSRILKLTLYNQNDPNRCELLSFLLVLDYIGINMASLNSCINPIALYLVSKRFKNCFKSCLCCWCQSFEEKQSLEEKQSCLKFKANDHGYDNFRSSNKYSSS

Endothelin-1 receptor = target: T2, Endothelin-1 receptor (Homo sapiens, UniProt P25101); experiment: Inhibitory activity against [125I]ET1 binding to human endothelin A receptor
T2 sequence (P25101 whole entry): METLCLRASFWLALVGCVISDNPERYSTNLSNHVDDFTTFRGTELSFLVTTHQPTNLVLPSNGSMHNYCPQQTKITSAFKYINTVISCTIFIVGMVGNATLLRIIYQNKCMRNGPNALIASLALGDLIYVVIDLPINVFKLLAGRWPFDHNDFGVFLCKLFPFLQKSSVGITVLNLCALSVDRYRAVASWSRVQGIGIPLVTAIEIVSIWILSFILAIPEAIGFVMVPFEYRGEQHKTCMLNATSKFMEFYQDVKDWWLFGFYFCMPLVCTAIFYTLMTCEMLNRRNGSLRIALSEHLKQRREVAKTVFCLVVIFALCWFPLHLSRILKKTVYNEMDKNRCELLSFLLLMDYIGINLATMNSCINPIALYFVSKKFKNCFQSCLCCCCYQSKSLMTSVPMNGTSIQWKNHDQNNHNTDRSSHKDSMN

Mus musculus = experiment: In vivo efficacy of compound was determined in mouse after intravenous administration; format: functional
Oryctolagus cuniculus = organism: Oryctolagus cuniculus; experiment: Antagonistic activity towards endothelin A receptor was evaluated using the rabbit iliac artery in presence of 3% human serum albumin; format: functional
Rattus norvegicus [3] = experiment: Plasma levels of compound was evaluated in rats after 4 hr of oral administration at 3 mg/kg; format: functional, organism-based; parameters: dose 3 mg/kg
Rattus norvegicus [4] = experiment: Plasma levels of compound was evaluated in rats after 8 hr of oral administration at 3 mg/kg; format: functional, organism-based; parameters: dose 3 mg/kg
Rattus norvegicus [5] = experiment: Plasma levels of compound was evaluated in rats after 1 hr of oral administration at 3 mg/kg; format: functional, organism-based; parameters: dose 3 mg/kg
[6] = target: Endothelin receptor, ET-A/ET-B (Homo sapiens) (UniProt P24530+P25101); experiment: Selectivity ratio of inhibitory activity towards endothelin receptor A to endothelin receptor B (ETB/ETA); format: protein assay
[7] = Bioavailability in rat (dose 1 mg/kg i.v.); format: ADME, organism-based; details: in vivo, iv

| bioavailability [1] | IC50 [2] | IC50 (Endothelin-1 receptor) | Selectivity ratio [6] | bioavailability [7] | SMILES | AD50 (Mus musculus) | PKB (Oryctolagus cuniculus) | Plasma level (Rattus norvegicus [3]) | Plasma level (Rattus norvegicus [4]) | Plasma level (Rattus norvegicus [5]) |
| --- | --- | --- | --- | --- | --- | --- | --- | --- | --- | --- |
| 57% | 62 nM | 0.062 nM | 1000 |  | COc1ccc([C@@H]2c3nc(NC(C)C)ccc3[C@H](c3ccc4c(c3)OCO4)[C@H]2C(=O)O)c(CO)c1 | 0.12 MPK | 7.76 | 94 nM | 19 nM | 130 nM |
|  | 43 nM | 0.027 nM | 1600 |  | COc1ccc([C@@H]2c3nc(NC(C)C)ccc3[C@H](c3ccc4c(c3)OCO4)[C@H]2C(=O)O)c(CN(C)C(C)=O)c1 |  | 8.97 | 3 nM | 0.4 nM | 2 nM |
|  | 54 nM | 0.041 nM |  | 7.6% | COc1ccc([C@@H]2c3nc(NC(C)C)ccc3[C@H](c3ccc4c(c3)OCO4)[C@H]2C(=O)O)c(CC(C)CO)c1 (stereo in doubt; form 1) | 0.034 MPK | 8.33 |  |  |  |
| 70% | 48 nM | 0.025 nM |  | 70% | COCC(C)Cc1cc(OC)ccc1[C@@H]1c2nc(NC(C)C)ccc2[C@H](c2ccc3c(c2)OCO3)[C@H]1C(=O)O (stereo in doubt; form 1) | 0.039 MPK | 8.33 |  |  |  |
